Source: ChEMBL document CHEMBL4219261, “Discovery of 3(S)-thiomethyl pyrrolidine ERK inhibitors for oncology” (Bioorg Med Chem Lett, 2018)
Blank lines part the entries; values can stand above or below the molecule they belong to.

What was measured:
[1] = Oral bioavailability in rat at 10 mg/kg; format: ADME, organism-based; settings: in vivo
[2] = biological target: T1, Cytochrome P450 3A4 (Homo sapiens, UniProt P08684); test: Inhibition of CYP3A4 (unknown origin) under pre-incubation condition; format: ADME
[3] = tested on: HT-29; test: Induction of apoptosis in human HT-29 cells harboring BRAF/KRAS mutant by caspase activation assay; format: functional, cell-based
[4] = biological target: T1, Cytochrome P450 3A4; test: Inhibition of CYP3A4 (unknown origin) under co-incubation condition; format: ADME
[5] = Oral bioavailability in rat at or 10 mg/kg; format: ADME, organism-based; settings: in vivo
[6] = Apparent permeability in human Caco2 cells […]; format: ADME, cell-based; settings: Caco-2
[7] = biological target: hERG (KCNH2) (Homo sapiens, UniProt Q12809); test: Inhibition of human ERG at […] by Rb efflux assay
[8] = tested on: HT-29; test: Antiproliferative activity against human HT-29 cells harboring BRAF/KRAS mutant; format: functional, cell-based
[9] = biological target: Mitogen-activated protein kinase 1 (Homo sapiens, UniProt P28482); test: Inhibition of ERK2 (unknown origin)
[10] = AUC in dog at 10 mg/kg, po; format: ADME, organism-based, Canis lupus familiaris; settings: in vivo
[11] = Clearance in human hepatocytes assessed per million cells; format: ADME, cell-based, Hepatocyte
[12] = AUC in rat at 10 mg/kg; format: ADME, organism-based; settings: in vivo
[13] = Clearance in dog hepatocytes assessed per million cells; format: ADME, cell-based, Canis lupus familiaris, Hepatocyte
[14] = Half life in rat at 3 mg/kg, iv or 10 mg/kg, po; format: ADME, organism-based; settings: in vivo
[15] = Total plasma clearance in rat at 3 mg/kg, iv or 10 mg/kg, po; format: ADME, organism-based
[16] = MRT in dog at 2 mg/kg, iv or 2 mg/kg dosed via portal vein infusion or 10 mg/kg, po; format: ADME, organism-based, Canis lupus familiaris; settings: in vivo
[17] = MRT in rat at 3 mg/kg, iv or 10 mg/kg, po; format: ADME, organism-based; settings: in vivo
[18] = Oral bioavailability in dog at 10 mg/kg; format: ADME, organism-based, Canis lupus familiaris; settings: in vivo
[19] = Half life in dog at 2 mg/kg, iv or 2 mg/kg dosed via portal vein infusion or 10 mg/kg, po; format: ADME, organism-based, Canis lupus familiaris; settings: in vivo
[20] = Total plasma clearance in dog at 2 mg/kg, iv or 2 mg/kg dosed via portal vein infusion or 10 mg/kg, po; format: ADME, organism-based, Canis lupus familiaris
[21] = Drug metabolism in human cryopreserved hepatocytes assessed as N-(3-(4-fluorophenyl)-1H-indazol-5-yl)acetamide formation at 1 uCi/ml up to 4 hrs by LC-ESI/MS/MS analysis; format: ADME, cell-based, Hepatocyte
[22] = Drug metabolism in rat urine assessed as amide hydrolysis followed by glucuronidation level 10 mg/kg, iv measured during 0 to 8 hrs post dose by LC-ESI/MS/MS analysis; format: ADME, organism-based; settings: in vivo
[23] = Drug metabolism in human cryopreserved hepatocytes assessed as (R)-1-(2-oxo-2-(4-(4-(pyrimidin-2-yl)phenyl)piperazin-1-yl)ethyl)pyrrolidine-3-carboxylic acid formation at 1 uCi/ml up to 4 hrs by LC-ESI/MS/MS analysis; format: ADME, cell-based, Hepatocyte
[24] = Drug metabolism in rat cryopreserved hepatocytes assessed as (R)-1-(2-oxo-2-(4-(4-(pyrimidin-2-yl)phenyl)piperazin-1-yl)ethyl)pyrrolidine-3-carboxylic acid formation at 10 uM up to 4 hrs by LC-ESI/MS/MS analysis; format: ADME, cell-based, Hepatocyte
[25] = Drug metabolism in rat bile assessed as amide hydrolysis followed by glucuronidation level 10 mg/kg, iv measured during 8 to 24 hrs post dose by LC-ESI/MS/MS analysis; format: ADME, organism-based; settings: in vivo
[26] = Drug metabolism in rat urine assessed as amide hydrolysis followed by glucuronidation level 10 mg/kg, iv measured during 8 to 24 hrs post dose by LC-ESI/MS/MS analysis; format: ADME, organism-based; settings: in vivo
[27] = Drug metabolism in rat bile assessed as amide hydrolysis followed by glucuronidation level 10 mg/kg, iv measured during 0 to 8 hrs post dose by LC-ESI/MS/MS analysis; format: ADME, organism-based; settings: in vivo
[28] = Drug metabolism in rat cryopreserved hepatocytes assessed as N-(3-(4-fluorophenyl)-1H-indazol-5-yl)acetamide formation at 10 uM up to 4 hrs by LC-ESI/MS/MS analysis; format: ADME, cell-based, Hepatocyte
[29] = Drug level in rat cryopreserved hepatocytes treated with (R)-N-(3-(4-fluorophenyl)-1H-indazol-5-yl)-1-(2-oxo-2-(4-(4-(pyrimidin-2-yl)phenyl)piperazin-1-yl)ethyl)pyrrolidine-3-carboxamide at 10 uM up to 4 hrs by LC-ESI/MS/MS analysis; format: ADME, cell-based, Hepatocyte
[30] = Drug level in human cryopreserved hepatocytes treated with [3H]8 at 1 uCi/ml up to 4 hrs by LC-ESI/MS/MS analysis; format: ADME, cell-based, Hepatocyte

Mitogen-activated protein kinase 1, sequence (P28482 whole entry): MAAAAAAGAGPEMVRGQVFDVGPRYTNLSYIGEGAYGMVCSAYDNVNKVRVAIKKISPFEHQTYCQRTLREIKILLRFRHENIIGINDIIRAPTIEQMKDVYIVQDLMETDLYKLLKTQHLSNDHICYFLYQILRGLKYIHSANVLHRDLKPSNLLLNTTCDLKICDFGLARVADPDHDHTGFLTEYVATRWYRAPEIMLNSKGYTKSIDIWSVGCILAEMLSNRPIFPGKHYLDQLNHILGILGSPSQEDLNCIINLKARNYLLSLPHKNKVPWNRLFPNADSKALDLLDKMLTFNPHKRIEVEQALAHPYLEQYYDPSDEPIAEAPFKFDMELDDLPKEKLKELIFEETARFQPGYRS
T1 sequence (P08684 whole entry): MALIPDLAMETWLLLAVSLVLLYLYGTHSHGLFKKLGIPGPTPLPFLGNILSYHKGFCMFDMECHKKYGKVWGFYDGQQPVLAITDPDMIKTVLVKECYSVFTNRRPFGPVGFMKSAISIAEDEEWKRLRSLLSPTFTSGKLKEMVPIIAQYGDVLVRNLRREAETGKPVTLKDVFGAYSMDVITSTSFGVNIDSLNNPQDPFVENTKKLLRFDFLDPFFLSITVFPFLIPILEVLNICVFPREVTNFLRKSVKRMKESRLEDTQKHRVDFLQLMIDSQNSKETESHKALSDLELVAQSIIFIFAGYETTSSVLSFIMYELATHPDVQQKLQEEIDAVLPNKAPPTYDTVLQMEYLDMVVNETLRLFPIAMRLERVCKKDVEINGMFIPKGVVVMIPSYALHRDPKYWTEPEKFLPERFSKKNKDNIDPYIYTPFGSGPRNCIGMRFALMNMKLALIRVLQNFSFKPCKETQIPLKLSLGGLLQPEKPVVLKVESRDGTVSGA
hERG (KCNH2), sequence (Q12809 whole entry): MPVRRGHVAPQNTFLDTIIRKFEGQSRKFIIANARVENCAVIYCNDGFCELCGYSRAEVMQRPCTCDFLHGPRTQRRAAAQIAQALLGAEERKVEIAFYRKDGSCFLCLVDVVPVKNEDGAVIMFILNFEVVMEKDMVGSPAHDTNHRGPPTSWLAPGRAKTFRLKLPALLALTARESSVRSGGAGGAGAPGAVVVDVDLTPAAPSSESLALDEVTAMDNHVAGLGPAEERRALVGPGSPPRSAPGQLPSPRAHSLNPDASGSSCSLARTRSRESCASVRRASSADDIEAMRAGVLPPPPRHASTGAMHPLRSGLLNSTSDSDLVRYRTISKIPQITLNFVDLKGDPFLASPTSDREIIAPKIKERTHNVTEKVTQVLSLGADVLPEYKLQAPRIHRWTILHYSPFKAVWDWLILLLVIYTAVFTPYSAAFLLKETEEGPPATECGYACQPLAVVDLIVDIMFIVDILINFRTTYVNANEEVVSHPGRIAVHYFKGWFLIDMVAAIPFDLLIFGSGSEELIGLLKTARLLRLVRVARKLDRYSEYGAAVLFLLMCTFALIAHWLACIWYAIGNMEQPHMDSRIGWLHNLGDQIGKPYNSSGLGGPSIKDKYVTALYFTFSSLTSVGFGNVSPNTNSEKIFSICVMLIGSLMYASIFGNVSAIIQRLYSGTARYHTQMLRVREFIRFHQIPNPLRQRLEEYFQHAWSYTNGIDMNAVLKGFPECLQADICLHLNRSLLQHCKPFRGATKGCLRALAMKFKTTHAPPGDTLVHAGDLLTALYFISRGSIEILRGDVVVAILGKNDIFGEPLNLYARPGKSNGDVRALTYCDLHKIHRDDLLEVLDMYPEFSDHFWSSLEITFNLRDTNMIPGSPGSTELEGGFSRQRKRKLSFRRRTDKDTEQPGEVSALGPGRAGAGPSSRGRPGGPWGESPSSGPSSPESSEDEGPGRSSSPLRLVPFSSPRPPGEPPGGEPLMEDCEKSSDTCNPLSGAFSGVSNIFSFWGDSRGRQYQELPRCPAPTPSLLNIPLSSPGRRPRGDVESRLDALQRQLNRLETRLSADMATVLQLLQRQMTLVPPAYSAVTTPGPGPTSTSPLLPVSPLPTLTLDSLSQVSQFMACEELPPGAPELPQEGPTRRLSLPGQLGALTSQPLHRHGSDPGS

Structure (SMILES): CS[C@@]1(C(=O)Nc2ccc3[nH]nc(-c4ccc(F)cc4)c3c2)CCN(CC(=O)N2CC=C(c3ccc(-c4ncccn4)cc3)CC2)C1
half-life [14]: 2.5 h | clearance [15]: 8.4 mL/min/kg | IC50 [2]: 2000 nM | IC50 [3]: 80 nM | MRT [16]: 5.1 h | IC50 [4]: > 30000 nM | AUC [10]: 17.2 µM·h | MRT [17]: 2.5 h | bioavailability [18]: 75% | CLH [11]: 7 µL/min/1e6 cells | bioavailability [5]: 70% | half-life [19]: 2 h | IC50 [9]: 7 nM | CLH [13]: 18 µL/min/1e6 cells | clearance [20]: 7.6 mL/min/kg | Papp [6]: 60 ×10⁻⁶ cm/s | inhibition at […] [7]: 8%

Structure (SMILES): [3H]c1cc(N2CCN(C(=O)CN3CC[C@@H](C(=O)Nc4ccc5[nH]nc(-c6c([3H])cc(F)cc6[3H])c5c4)C3)CC2)cc([3H])c1-c1ncccn1
Drug metabolism [21]: Metabolite_Detected | Drug metabolism [22]: Metabolite_Detected | Drug metabolism [23]: Metabolite_Detected | Drug metabolism [24]: Metabolite_Detected | Drug metabolism [25]: Metabolite_Detected | Drug metabolism [26]: Metabolite_Detected | Drug metabolism [27]: Metabolite_Detected | Drug metabolism [28]: Metabolite_Detected

Structure (SMILES): O=C(O)[C@@H]1CCN(CC(=O)N2CCN(c3ccc(-c4ncccn4)cc3)CC2)C1
Drug metabolism [29]: Metabolite_Detected | Drug metabolism [30]: Metabolite_Detected

Structure (SMILES): O=C(CN1CC[C@@H](CNc2ccc3[nH]nc(-c4ccc(F)cc4)c3c2)C1)N1CCN(c2ccc(-c3ncccn3)cc2)CC1
IC50 [9]: 960 nM

Structure (SMILES): CC(=O)Nc1ccc2[nH]nc(-c3ccc(F)cc3)c2c1
Drug metabolism [29]: Metabolite_Detected | Drug metabolism [30]: Metabolite_Detected

Structure (SMILES): CC(=O)N(C[C@@H]1CCN(CC(=O)N2CCN(c3ccc(-c4ncccn4)cc3)CC2)C1)c1ccc2[nH]nc(-c3ccc(F)cc3)c2c1
IC50 [9]: 574 nM

Structure (SMILES): CS[C@]1(C(=O)Nc2ccc3[nH]nc(-c4ccc(F)cc4)c3c2)CCN(CC(=O)N2CC=C(c3ccc(-c4ncccn4)cc3)CC2)C1
IC50 [9]: > 3000 nM

Structure (SMILES): CC[C@@]1(C(=O)Nc2ccc3[nH]nc(-c4ccc(F)cc4)c3c2)CCN(CC(=O)N2CC=C(c3ccc(-c4ncccn4)cc3)CC2)C1
IC50 [9]: 115 nM

Structure (SMILES): C[C@@]1(C(=O)Nc2ccc3[nH]nc(-c4ccc(F)cc4)c3c2)CCN(CC(=O)N2CCN(c3ccc(-c4ncccn4)cc3)CC2)C1
IC50 [9]: 24 nM

Structure (SMILES): O=C(Nc1ccc2[nH]nc(-c3ccc(F)cc3)c2c1)C1CN(CC(=O)N2CC=C(c3ccc(-c4ncccn4)cc3)CC2)CCO1 (stereo not drawn)
IC50 [9]: 119 nM

Structure (SMILES): O=C(CN1CC[C@@](CO)(C(=O)Nc2ccc3[nH]nc(-c4ccc(F)cc4)c3c2)C1)N1CC=C(c2ccc(-c3ncccn3)cc2)CC1
IC50 [9]: 14 nM

Further lines, with some results ahead:

bioavailability [1]: 0% | IC50 [2]: 5700 nM | IC50 [3]: 96 nM | IC50 [4]: 7800 nM | bioavailability [5]: 0% | Papp [6]: 4 ×10⁻⁶ cm/s | IC50 [8]: 59 nM
Structure (SMILES): O=C(Nc1ccc2[nH]nc(-c3ccncc3)c2c1)[C@@H]1CCN(CC(=O)N2CCN(c3ccc(-c4ncccn4)cc3)CC2)C1
inhibition at […] [7]: 12%

IC50 [9]: 41 nM
Structure (SMILES): COC[C@@]1(C(=O)Nc2ccc3[nH]nc(-c4ccc(F)cc4)c3c2)CCN(CC(=O)N2CC=C(c3ccc(-c4ncccn4)cc3)CC2)C1

IC50 [2]: 2200 nM | IC50 [3]: 79 nM | IC50 [4]: 31000 nM | AUC [10]: 4.53 µM·h | CLH [11]: 33 µL/min/1e6 cells | IC50 [9]: 4.8 nM | AUC [12]: 1.88 µM·h | CLH [13]: 36 µL/min/1e6 cells | IC50 [8]: 88 nM
Structure (SMILES): CO[C@@]1(C(=O)Nc2ccc3[nH]nc(-c4ccc(F)cc4)c3c2)CCN(CC(=O)N2CC=C(c3ccc(-c4ncccn4)cc3)CC2)C1
inhibition at […] [7]: 56%

IC50 [9]: 2.1 nM
Structure (SMILES): CO[C@@]1(C(=O)Nc2ccc3[nH]nc(-c4ccc(F)cc4)c3c2)CCN(CC(=O)N2CCN(c3ccc(-c4ncccn4)cc3)CC2)C1

IC50 [9]: 5.6 nM
Structure (SMILES): CS[C@@]1(C(=O)Nc2ccc3[nH]nc(-c4ccc(F)cc4)c3c2)CCN(CC(=O)N2CCN(c3ccc(-c4ncccn4)cc3)CC2)C1

IC50 [9]: > 3000 nM
Structure (SMILES): O=C(CN1CCC(Oc2ccccc2)(C(=O)Nc2ccc3[nH]nc(-c4ccc(F)cc4)c3c2)C1)N1CCN(c2ccc(-c3ncccn3)cc2)CC1 (stereo not drawn)

IC50 [9]: 15.5 nM
Structure (SMILES): O=C(Nc1ccc2[nH]nc(-c3ccc(F)cc3)c2c1)[C@@H]1CCN(CC(=O)N2CC=C(c3ccc(-c4ncccn4)cc3)CC2)C1

IC50 [9]: 5.8 nM
Structure (SMILES): O=C(CN1CCC(CF)(C(=O)Nc2ccc3[nH]nc(-c4ccc(F)cc4)c3c2)C1)N1CCN(c2ccc(-c3ncccn3)cc2)CC1 (stereo not drawn)

IC50 [9]: 5.5 nM
Structure (SMILES): O=C(Nc1ccc2[nH]nc(-c3ccc(F)cc3)c2c1)[C@@H]1CCN(CC(=O)N2CCN(c3ccc(-c4ncccn4)cc3)CC2)C1

IC50 [9]: 90 nM
Structure (SMILES): CC(C)O[C@@]1(C(=O)Nc2ccc3[nH]nc(-c4ccc(F)cc4)c3c2)CCN(CC(=O)N2CCN(c3ccc(-c4ncccn4)cc3)CC2)C1

IC50 [9]: 9.7 nM
Structure (SMILES): CCO[C@@]1(C(=O)Nc2ccc3[nH]nc(-c4ccc(F)cc4)c3c2)CCN(CC(=O)N2CCN(c3ccc(-c4ncccn4)cc3)CC2)C1

IC50 [9]: 1310 nM
Structure (SMILES): O=C(Nc1ccc2[nH]nc(-c3ccc(F)cc3)c2c1)C1CN(CC(=O)N2CC=C(c3ccc(-c4ncccn4)cc3)CC2)CCS1 (stereo not drawn)

IC50 [9]: 21 nM
Structure (SMILES): CN(C)C1(C(=O)Nc2ccc3[nH]nc(-c4ccc(F)cc4)c3c2)CCN(CC(=O)N2CC=C(c3ccc(-c4ncccn4)cc3)CC2)C1 (stereo not drawn)

IC50 [9]: 25 nM
Structure (SMILES): COC[C@@]1(C(=O)Nc2ccc3[nH]nc(-c4ccc(F)cc4)c3c2)CCN(CC(=O)N2CCN(c3ccc(-c4ncccn4)cc3)CC2)C1

IC50 [9]: 12 nM
Structure (SMILES): CS(=O)(=O)[C@@]1(C(=O)Nc2ccc3[nH]nc(-c4ccc(F)cc4)c3c2)CCN(CC(=O)N2CC=C(c3ccc(-c4ncccn4)cc3)CC2)C1

IC50 [9]: > 1000 nM
Structure (SMILES): O=C(CN1CCCC(c2cn(-c3ccc4[nH]nc(-c5ccc(F)cc5)c4c3)nn2)C1)N1CC=C(c2ccc(-c3ncccn3)cc2)CC1 (stereo not drawn)
